Here are results for one compound from paper PMC10165273, “Itch receptor MRGPRX4 interacts with the receptor activity–modifying proteins” (The Journal of Biological Chemistry, 2023).

The assay deals with T1, MRGPRX4 (Homo sapiens, UniProt Q96LA9).
T1 construct: expressed in transfected cells; host or cells: HEK293T
Put plainly: IP1 accumulation HTRF assay, MRGPRX4. In kind it is cell-based. More on the design: key to IP1 Basal / IP1 accumulation with YM (Figure 1c) / response to agonist, MRGPRX4 / IP1 accumulation: % IP1: unstimulated mock-transfected = 0%, fully stimulated MRGPRX4 = 100%. The following applies: for Emax: HEK-293T. (In general: TR-FRET usually uses a lanthanide donor and a delayed reading to cut background.)

pEC50: −log10 of the molar value. Where two headings read alike, the source gives them in different places.

T1 sequence (Q96LA9 whole entry): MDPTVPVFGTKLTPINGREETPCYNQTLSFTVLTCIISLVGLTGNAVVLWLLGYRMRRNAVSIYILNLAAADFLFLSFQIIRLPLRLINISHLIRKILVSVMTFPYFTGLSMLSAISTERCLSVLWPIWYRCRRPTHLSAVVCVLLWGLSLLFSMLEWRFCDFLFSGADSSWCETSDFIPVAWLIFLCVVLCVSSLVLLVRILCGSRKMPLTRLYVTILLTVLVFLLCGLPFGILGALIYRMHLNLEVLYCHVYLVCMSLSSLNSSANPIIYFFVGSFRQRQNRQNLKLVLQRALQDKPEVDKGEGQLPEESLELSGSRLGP

Broadly, the pEC50 is the negative decadic logarithm of the EC50, by convention in mol/L. In the case of `C[C@H](CCC(=O)NCCS(=O)(=O)O)[C@H]1CC[C@H]2[C@@H]3CC[C@@H]4C[C@H](O)CC[C@]4(C)[C@H]3C[C@H](O)[C@]12C` [TDCA, Taurodeoxycholic acid], under “2 h, log [agonist] (M) -4, MRGX4-transfected, individual replicates, read-out: IP1 accumulation, dose-response (Figure 1a)”, the activation at 100 µM was 48.8%. In addition, the activation at 33.333 µM (2 h, log [agonist] (M) -4.47712, MRGX4-transfected, individual replicates, read-out: IP1 accumulation, dose-response (Figure 1a)) turned out to be 32.5%. The activation at 11.111 µM (2 h, log [agonist] (M) -4.95424, MRGX4-transfected, individual replicates, read-out: IP1 accumulation, dose-response (Figure 1a)) came to 22.8%. For the same compound, where the note is “2 h, log [agonist] (M) -5.43136, MRGX4-transfected, individual replicates, read-out: IP1 accumulation, dose-response (Figure 1a)”, the activation at 3.7037 µM turned out to be 12.8%. In addition, the activation at 1.2346 µM (2 h, log [agonist] (M) -5.90849, MRGX4-transfected, individual replicates, read-out: IP1 accumulation, dose-response (Figure 1a)) was found to be 12.2%. Further, the activation at 0.4115 µM (2 h, log [agonist] (M) -6.38561, MRGX4-transfected, individual replicates, read-out: IP1 accumulation, dose-response (Figure 1a)) is 12.6%. Where the note is “2 h, log [agonist] (M) -6.86273, MRGX4-transfected, individual replicates, read-out: IP1 accumulation, dose-response (Figure 1a)”, the activation at 0.13717 µM is 10.1%. Further, for the setting “Figure 4c-f, agonist 100µM, MRGPRX4 alone (reference = 100)”, the “response to agonist, MRGPRX4” value was determined as 100. The Emax reads like this: (MRGPRX4 (Fig. 1A), HEK293T, normalized to 100 μM nateglinide, read-out: IP1 Emax) 84.2%; (MRGPRX4 (Fig. 1A), HEK293T, normalized to 100 μM nateglinide, read-out: IP1 span) 69.6%. Also, the “IP1 Basal” value (MRGPRX4 (Fig. 1A), HEK293T, normalized to 100 μM nateglinide) is given as 14.54. In addition, the pEC50 (MRGPRX4 (Fig. 1A), HEK293T, normalized to 100 μM nateglinide, read-out: IP1 EC50) was 4.27.
